The record followed here is US20240208950A1, “COMPOSITIONS AND METHODS FOR TREATMENT OF CERVICAL AND OVARIAN CANCER” (SOUTH DAKOTA BOARD OF REGENTS, priority 2021, published 2024).

In general, IC50 refers to the concentration needed to halve the response being measured.

For experiment [1], the system named is SiHa cells. The experiment in a line: Cell migration (agarose bead, scratch wound), SiHa. The note with it: 0 and 48 hours. The class given is cell-based, human. As to the method:
FIGS. 7B and 7D show the effect of ORM-Br on motility potential of CaSki cells (FIG. 7B) and SiHa cells (FIG. 7D) as predicted by agarose bead assay. The images shown in FIGS. 7A-7D represent the migratory cells (MC) in control and ORM-Br treated groups at 0 and 48 hours. In FIGS. 7B and 7D, AB means agarose beads. In FIGS. 7A-7D the images magnification were at 4.
Cell motility was performed by in vitro scratch wound assay. Briefly, cells were seeded in a 12-wells plate and after 80-90% confluency a standardized wound was made using a 200 μL micropipette tip. Cells were then treated with Br-ORM (10 μM) and photographed by phase contrast microscopy. […]
FIG. 14. […] Effect of Br-ORM on cell migration of cervical cancer cells as determined by agarose bead (FIG. 14A), scratch wound healing (FIG. 14B), and Boyden chamber assay (FIG. 14C). […] Closure of wound was determined and photographed using phase contrast microscopy. […] Bar graph represent the quantification of migrated CaSki cells of control and Br-ORM treated groups (FIG. 14C(ii)). […] Effect of Br-ORM treatment on invasion of CaSki cells as determined by a commercially available kit (BD Biosciences) as described in materials and methods. In brief, 24 hours post-treatment of Br-ORM, invaded cells were fixed, stained and counted. […] Bar graph represent the quantification of invaded CaSki cells of control and Br-ORM treated groups (FIG. 14D(ii)). […]

In experiment [2] the test system is ovarian cancer cell line A2780. Briefly: MTT cell viable assay (cytotoxicity and anti-proliferation). The note with it: Homo sapiens. In kind it is cell-based. As to the method:
A biological assay was performed to study the potency of ORM-analogs by observing their pharmaceutical effects on living tissue (in vitro) and the effects of these analogs of unknown potency were compared to the effects of the standard (ormeloxifene). An MTT cell viable assay was first conducted to measure the cytotoxicity and anti-proliferation activity of synthesized analogs (Table 2 and FIG. 2).
For orientation: Formazan colour is commonly taken as a measure of viable cells.

For experiment [3], the system named is β-catenin in SiHa cells. The experiment in a line: β-catenin degradation with cyclohexamide (western blot, pulse chase), SiHa. In kind it is cell-based, human. The note with it: with cyclohexamide (CHX: 50 mg), ORM-Br. As to the method: A western blot analysis was conducted to determine the effect of ORM-Br on β-catenin degradation. […] Protein lysates were prepared and subjected to western blot analysis to ascertain the levels of protein of β-catenin in cyclohexamide-treated cells (FIG. 3A) and in ORM-Br and cyclohexamide-treated cells (FIG. 3B).
In general terms: A western blot detects proteins with antibodies after separation by electrophoresis.

For experiment [4], the system named is SiHa cells. The experiment in a line: Cell cycle analysis by flow cytometry, SiHa. The class given is cell-based, human. The note with it: 10 and 15 μM. As to the method: The effect of Br-ORM on cell cycle analysis was performed by flow cytometry as has described in the art. In brief, approximately 70% confluent cervical cancer cells were treated with Br-ORM (10 and 20 μM) for 24 hours. The cells were trypsinized and washed twice with ice-cold PBS (1×). The cell pellets were resuspended in 50 μL of ice cold PBS (1×) and 450 μL of cold methanol. The cells were washed twice with ice cold PBS (1×), suspended in 500 μL PBS, and incubated with 500 μL RNase (20 μg/mL final concentration) at 37° C. for 1 hour. The cells were chilled over ice for 10 minutes and stained with propidium iodide (50 μg/mL final concentration) for 1 hour and analyzed by flow cytometry (BD Accuri C6; Becton Dickinson, Mountain View, CA, USA). Data was analyzed by using Modfit software.
To examine the effect on cell cycle distribution, cervical cancer cells were treated with Br-ORM (10 and 15 μM) and analyzed by flow cytometry (FIG. 13F(i)-(ii)).
On the technique in general: Flow cytometry measures light scatter and fluorescence of single cells or particles in a stream.

With `COc1ccc2c(c1)OC(C)(C)C(c1ccc(Br)cc1)C2c1ccc(OCCN2CCCC2)cc1` (centres unmarked) [ORM-Br], the entries for the “cell migration / motility” value in experiment [1] and in experiment [1] (listed as Br-ORM) were “inhibits the migration” and “dose dependent inhibition of migration abilities”, respectively. The IC50 in experiment [2] was found to be 11.2 µM. The “protein levels of β-catenin relative to cyclohexamide treatment” value in experiment [3] is reported as “significant decrease in protein levels of β-catenin”. In experiment [4], the cell cycle distribution result was “arrested cell cycle progression of CaSki and SiHa cells at G1/S phase”.
